{"source": "paper PMC10415494", "about": "“Ga(III) pyridinecarboxylate complexes: potential analogues of the second generation of therapeutic Ga(III) complexes?” (Journal of Biological Inorganic Chemistry, 2023)", "key": {"[1]": {"target": "T1, bovine serum albumin (BSA) (Bos taurus, UniProt P02769)", "T1 construct": "purchased Sigma-Aldrich Chemicals", "T1 sequence (P02769 25-607)": "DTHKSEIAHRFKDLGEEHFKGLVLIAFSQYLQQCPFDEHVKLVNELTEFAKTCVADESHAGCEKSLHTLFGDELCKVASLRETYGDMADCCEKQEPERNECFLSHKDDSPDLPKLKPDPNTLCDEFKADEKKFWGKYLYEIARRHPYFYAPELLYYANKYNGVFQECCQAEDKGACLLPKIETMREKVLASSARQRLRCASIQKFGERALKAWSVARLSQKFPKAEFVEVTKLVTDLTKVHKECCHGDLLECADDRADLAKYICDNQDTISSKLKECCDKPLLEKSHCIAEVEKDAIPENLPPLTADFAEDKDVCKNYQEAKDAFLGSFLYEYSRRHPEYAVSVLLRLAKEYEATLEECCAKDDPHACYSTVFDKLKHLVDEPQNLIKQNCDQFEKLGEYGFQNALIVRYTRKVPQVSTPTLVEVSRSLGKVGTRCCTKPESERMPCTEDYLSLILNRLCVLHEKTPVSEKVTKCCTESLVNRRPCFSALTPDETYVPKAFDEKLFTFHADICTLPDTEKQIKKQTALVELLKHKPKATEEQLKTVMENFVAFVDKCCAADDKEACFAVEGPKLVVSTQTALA", "test": "BSA fluorescence quenching (Stern-Volmer)", "type": "binding", "details": "0.01 M PBS buffer pH 7.4, 25 °C, λex = 280 nm", "experimental": "Fluorescence measurements were carried out on a Varian Cary Eclipse spectrofluorometer. The quenching studies of BSA with the Ga(III) complexes were investigated to determine whether they were able to quench fluorescence of BSA. All measurements were performed at 25 °C in 0.01 M PBS buffer (pH 7.4). The fluorescence spectra were measured at an excitation wavelength of 280 nm, with a slit width of 10 nm for the excitation and emission beams, in the range of 300–450 nm and analysed according to the classical Stern–Volmer Equation: F0/F=1+KSVQ where F0 and F are the fluorescence intensities in the absence and the presence of the quencher, respectively, KSV is the Stern–Volmer constant, and [Q] is the concentration of quencher."}, "[2]": {"test": "Potentiometric determination of ligand protonation (dissociation) constants", "type": "physicochemical", "details": "25 °C, I(KNO3) = 0.1 M", "experimental": "The stock solution of HPic and H2Dpic was prepared by dissolving in demineralized water (c(ligand) = 0.02 M). The gallium(III) ion solution was prepared from anhydrous gallium(III) nitrate (c(Ga^3+) = 0.05 M) and was standardized by back titration of excess of EDTA with zinc(II). Decarbonated potassium hydroxide solution (approx. 0.2 M) was used as a titrant that was standardized by potassium hydrogen phthalate (c(KHP) = 0.1 M). Standard inert electrolyte of nitric acid was used in all titrations (c(HNO3) = 0.03 M, I(HNO3/KNO3) = 0.1 M). Potentiometric measurements were carried out using a TitroLine 7000 dosage system with a BlueLine combination electrode (SI Analytics) in a glass vessel (5 mL) thermostated at 25 ± 0.1 °C at an ionic strength I(KNO3) = 0.1 M. Inert atmosphere was ensured by a constant flow of a nitrogen gas. Precise calibration of the electrode was carried out by the titration of 0.03 M HNO3 with 0.2 M KOH in the range –log[H^+] = 1.8–12.0, with the pH-meter yielding E values. The relation between E and –log[H^+] is expressed by Eq. (1) where the term E^0 contains the standard potentials of the electrode and the contribution of inert ions to the liquid-junction potential. The value S corresponds to the Nernstian slope, the value of which should be close to the theoretical value, and j1[H^+] and j2[OH^–] = j2Kw/[H^+] are contributions of the H^+ and OH^– ions, respectively, to the liquid-junction potential. The pKw value was 13.78 in Eq. (1).1 E=E^0-S-logH^++j1H^++j2Kw/H^+\nThe parameters j1 and j2 cause deviation from linear dependence between E and –log[H^+] only in strongly acidic and strongly alkaline solutions. The picolinic and dipicolinic acid protonation constants were determined with ligand concentration 0.004 M. The stability constants in the Ga-HPic and Ga-H2Dpic binary system were determined by the ligand concentrations 0.004 and the Ga^3+ concentration was 0.004, 0.002 and 0.001 M in dependence on the ligand to metal ratio.\nThe protonation constants β110, β210 are the concentration constants and are defined by β110 = [HL]/ [H][L], β210 = [H2L]/ [H]^2[L] (pK2 = logβ110, pK1 = logβ210- logβ110); the stability constants are defined by βrqp = [HrLqMp]/[H]^r[L]^q[M]^p. The equilibrium constants were obtained by fitting the titration data with OPIUM [23]. The following hydrolysis constants were used for the calculations: βpr = [Mp(OH)r^3−r][H]^r/[M]^p; log β11 = − 2.74; log β12 = − 7.0; log β13 = − 11.96; log β14 = − 15.52 [24]."}, "[3]": {"system": "Pseudomonas aeruginosa (P. aeruginosa) CCM 1959", "test": "Antimicrobial activity, macrodilution method (growth by A590)", "type": "cell-based", "details": "Pseudomonas aeruginosa"}, "[4]": {"system": "Escherichia coli (E. coli) CCM 3988", "test": "Antimicrobial activity, macrodilution method (growth by A590)", "type": "cell-based", "details": "Escherichia coli"}, "[5]": {"system": "Staphylococcus aureus (S. aureus) CCM 3953", "test": "Antimicrobial activity, macrodilution method (growth by A590)", "type": "cell-based", "details": "Staphylococcus aureus"}}, "note": "Read-outs that look alike come from different tables or passages of the source.", "data": [{"smiles": "O=C(O)c1cccc(C(=O)O)n1", "note": "[H2Dpic, dipicolinic acid]", "values": [{"measurement": "Stern–Volmer binding constant Ksv BSA", "setting": "[1]", "result": 28700, "unit": "M⁻¹"}, {"measurement": "dissociation constant pK2", "setting": "[2]", "result": 2.02}, {"measurement": "dissociation constant pK3", "setting": "[2]", "result": 4.74}, {"measurement": "IC50", "setting": "[3]; CCM1959, read-out: IC50 P. aeruginosa", "result": "> 1000", "unit": "µM"}, {"measurement": "IC50", "setting": "[4]; CCM3988, read-out: IC50 E. coli", "result": "> 1000", "unit": "µM"}, {"measurement": "IC50", "setting": "[5]; CCM3953, read-out: IC50 S. aureus", "result": "> 1000", "unit": "µM"}]}, {"smiles": "O=C(O)c1ccccn1", "note": "[HPic, picolinic acid]", "values": [{"measurement": "Stern–Volmer binding constant Ksv BSA", "setting": "[1]", "result": 6800, "unit": "M⁻¹"}, {"measurement": "dissociation constant pK1", "setting": "[2]", "result": 1.17}, {"measurement": "dissociation constant pK2", "setting": "[2]", "result": 5.25}, {"measurement": "IC50", "setting": "[3]; CCM1959, Bacteria, MHB, 37 °C, DMSO max 1.0 vol. %, read-out: IC50 P. aeruginosa", "result": "> 500", "unit": "µM"}, {"measurement": "IC50", "setting": "[4]; CCM3988, Bacteria, MHB, 37 °C, DMSO max 1.0 vol. %, read-out: IC50 E. coli", "result": "> 500", "unit": "µM"}, {"measurement": "IC50", "setting": "[5]; CCM3953, Bacteria, MHB, 37 °C, DMSO max 1.0 vol. %, read-out: IC50 S. aureus", "result": "> 500", "unit": "µM"}]}]}
